How the values were obtained:
[1] = tested on: trypsin, chymotrypsin and elastase; assay: Metabolic stability in pancreatic enzyme mix (ESMS, SIM of molecular ion); format: in vitro ADME; details: 0.025 mg/ml, 100 mM ammoniumbicarbonate pH 8.0, 37° C., 24 h in degradation solution, enzyme:substrate approx. 1:5
Experimental: (§1) The solution is left at 37° C. overnight.
(§2) Identification of degradation products furthermore involved the use of plasma desorption mass spectrometry (PDMS) with sample application on nitrocellulose coated targets and standard instrumental settings. The accuracy of the hereby determined masses is generally better than 0.1%.
(§3) Separation and isolation of degradation products was done using a HY-TACH C-18 reverse phase 4.6×105 mm HPLC column (Hewlett-Packard Company, Palo Alto, Calif.) with a standard acetonitril: TFA separation gradient. The HPLC system used was HP1090M (Hewlett-Packard Company, Palo Alto, Calif.).

carboxypeptidase Y and B = assay: Metabolic stability in carboxypeptidase mix (ESMS, SIM of molecular ion); format: in vitro ADME; details: 0.025 mg/ml, 50 mM ammoniumacetate pH 4.5, 37° C., 24 h in degradation solution, enzyme:substrate approx. 1:5
Experimental: as §1, §2, §3

**Q.** With Glucagon as the substance, how does the “Pan. enzyme mix (stability)” value [1] read?
**A.** The value was “− (Unstable (more than 20% decrease in SIM signal after 24 h in degradation solution))”.

**Q.** What about the “Carboxy-peptidase mix (stability)” value (carboxypeptidase Y and B) of the same substance?
**A.** Its value is “− (Unstable (more than 20% decrease in SIM signal after 24 h in degradation solution))”.
